We go through 13 compounds from patent publication US20190352276A1, “INHIBITORS OF BRUTON'S TYROSINE KINASE” (Joint Stock Company "Biocad", priority 2016, published 2019).

pIC50: −log10 of the molar value.

Series [1] deals with Mino (mantle cell lymphoma). Kind of series: Antiproliferative activity, Mino cells (Alamar Blue). In kind it is cell-based. The note with it: Homo sapiens, Table 10, 72 h, average of several tests. A digest of the protocol: (§1)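 Cells (~3*10^4 per well) in RPMI-1640 with 10% FBS and gentamicin were exposed to diluted compounds (DMSO <1%) for 72 h at 37 °C, 5% CO2. Alamar Blue was then added for 14-16 h, and fluorescence was read at Ex 540/Em 590 nm. IC50 came from a four-parameter logistic fit.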
A general note: Resazurin is reduced to fluorescent resorufin, in cell work by metabolically active cells.

The nature of series [2]: Stability in human blood plasma. Conditions: 10 μM in pooled human blood plasma, incubated 4 hours at 37° C.
Procedure: To assess the blood plasma stability of the drug candidates, we used pooled human blood plasma taken from ten healthy donors. The initial solution (10 Mm in DMSO) was diluted with pooled blood plasma to 10 μM (test solution). The test solution had been incubated for 4 hours in a dry block heater at 37° C. We determined peak areas of the compounds corresponding to the start of the test (before incubating) and the end of the test (after incubating in a dry block heater at 37° C.) by HPLC using Agilent1200 chromatograph (Agilent, USA) with preliminary protein precipitation with acetonitrile. We used gradient elution (1 mL/min flow rate). We determined amount of substance in the sample in % after incubation.
We evaluated the stability of the compounds.
Series [3] relates to Z-138 (mantle cell lymphoma). Kind of series: Antiproliferative activity, Z-138 cells (Alamar Blue). Type of series: cell-based. Conditions: Homo sapiens, Table 10, 72 h, average of several tests. The procedure, abridged: as §1
Series [4] relates to HepG2 cells (hepatocellular carcinoma). As to the kind of experiment: General cytotoxicity on HepG2 cells (CC50; therapeutic index CC50 HepG2/IC50 Mino). In kind it is cell-based. The note with it: Table 10; therapeutic index. The procedure, abridged:
(§2)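 Cells seeded at 2*10^4 per well in DMEM, compounds added after 24 h at 200 μM to 4 μM final and incubated 72 h. Viability read with Alamar Blue to derive CC50; therapeutic index is CC50 (HepG2) divided by IC50 (Mino).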

Assay in series [5]: as above
Type of series: cell-based. Conditions: human, HepG2 cells (hepatocellular carcinoma); Table 10; 72 hours, Alamar Blue; average of several tests. A digest of the protocol:
as §2

Series [6] is described as follows: Permeability through the monolayer of Caco-2 cells. Type of series: in vitro ADME. The note with it: human; for Papp A→B at 2 h, 10 μM / Papp B→A at 2 h, 10 μM: 2 h at 37° C.; for efflux ratio at 2 h, 10 μM: read-out: efflux (Papp B-A/Papp A-B). The source says: Assessment of permeability through the monolayer of Caco-2 cells allows to evaluate the ability of the candidate compounds to penetrate through biological membranes by active and passive transport.
Caco-2, the cells of the intestinal epithelium, had been cultured in transwell plate inserts with the filters (with pores of 0.4 μm, BD Falcon with High Density, #353495) for 21 days, and then the integrity of the monolayer were estimated with Lucifer Yellow dye (Sigma-Aldrich, USA) by standard protocol. When setting the A→B transfer, solutions of test substances were added in a buffer with pH 6.5 (Hanks solution, 10 mM HEPES, 15 mM glucose solution) with the concentration of 10 μM into the upper chamber; the lower chamber was filled with a buffer with pH 7.4 (Hanks solution, 10 mM HEPES, 15 mM glucose solution, 1% BSA). When setting B→A transfer, the upper chamber was filled with the buffer with pH 6.5, and solutions of the test substances were added in the buffer with pH 7.4 at the concentration of 10 μM in the lower chamber. Propranolol was used as a control substance (as it has high permeability).
We used gradient elution (1 mL/min flow rate). We determined the areas of peaks corresponding to the compounds. On the basis of peak areas in the calibration standards we determined the concentration of compound in the initial solution and in the samples from the wells of the upper and lower chambers.
Papp, permeability through the cell layer, was calculated using the following formula:
Papp=(C(t)*V)/(C(0)*t*Area), where
Papp is the effective constant of permeability, m/s V is the volume of solution (0.8 ml in A→B test, 0.2 ml in B→A test), ml Area is the surface area of the membrane (0.33 cm^2), cm^2 t is the time of incubation (7200 sec), sec C(0) is the concentration of the initial solution, μM C(t) is the concentration of the solution after 2 hours (the concentration in the sample from the well of the lower chamber in A→B test; the concentration in the sample from the well of the top chamber in B→A test), μM
The value was calculated with the following formula:
efflux=Papp B-A/Papp A-B, where
Papp A-B is the value of the permeability in the direct test (A→B); Papp B-A is the value of the permeability in the backward test in (B→A).

A short description of series [7]: Chemical stability in artificial gastric fluid (SGF without enzymes). Conditions: 10 μM in SGF without enzymes, pH=1.4, 37° C.

`C=CC(=O)N1CCC[C@@H](n2nc(-c3ccc(-n4ccc(=O)c(C#N)c4)cc3)c3cncc(Cl)c32)C1` [BCD-BTK-208, (R)-1-(4-(1-(1-acryloylpiperidin-3-yl)-7-chloro-1H-pyrazolo[4,3-c]pyridin-3-yl)phenyl)-4-oxo-1,4-dihydropyridine-3-carbonitrile]: the pIC50 (in general, −log10 of the IC50, conventionally taken in molar units) in series [1] is 4.67; in series [3], 4.49. For the same compound, in series [2], the “Amount of substance in the sample, % (stability in human blood plasma)” value (“Amount of substance in the sample, %” below) was 91.4%. In series [4], the “CC50 (HepG2)/IC50 (Mino)” value was 5.21. Moreover, the midpoint of cytotoxicity in series [5], the CC50 at 72 h, lay at 112 µM.

On to `C=CC(=O)N1CCC[C@@H](n2nc(-c3ccc(C(=O)Nc4ccc(F)cn4)cc3)c3cncc(Cl)c32)C1` [BCD-BTK-212, (R)-4-(1-(1-acryloylpiperidin-3-yl)-7-chloro-1H-pyrazolo[4,3-c]pyridin-3-yl)-N-(5-fluoropyridin-2-yl)benzamide], for which the pIC50 in series [1] was 5.46; in series [3], 4.83. Moreover, the “Amount of substance in the sample, %” value in series [2] is listed as 90.8%. Also, the “CC50 (HepG2)/IC50 (Mino)” value in series [4] is given as 8.01. The CC50 (usually the concentration at which the toxic effect on the cells reaches its halfway point) at 72 h in series [5] worked out at 28.1 µM.

On to `C=CC(=O)N1CCC[C@@H](n2nc(-c3ccc(C(=O)Nc4cc(C(F)(F)CC)ccn4)cc3)c3c(N)ncc(Cl)c32)C1` [BCD-BTK-231, (R)-4-(1-(1-acryloylpiperidin-3-yl)-4-amino-7-chloro-1H-pyrazolo[4,3-c]pyridin-3-yl)-N-(4-(1,1-difluoropropyl)pyridin-2-yl)benzamide], for which, in series [6], the Papp A→B (commonly the apparent permeability from the apical to the basolateral side of a cell layer) at 2 h, 10 μM is 9.8 ×10⁻⁶ cm/s; the Papp B→A (usually the apparent permeability from the basolateral to the apical side of a cell layer) at 2 h, 10 μM is 1.84 ×10⁻⁶ cm/s; the efflux ratio at 2 h, 10 μM is 0.19. For the same compound, in series [1], the pIC50 is 5.65. Also, the “Amount of substance in the sample, %” value in series [2] turned out to be 93.1%. The pIC50 in series [3] was 5.47. For the same compound, the “Amount of substance in the sample in % (chemical stability)” value (from here on “Amount of substance in the sample in %”) in series [7] is recorded as 100%. The “CC50 (HepG2)/IC50 (Mino)” value in series [4] was determined as 4.01. The same compound registered a CC50 at 72 h in series [5] of 9.08 µM.

Regarding `C=CC(=O)N1CCC[C@@H](n2nc(-c3ccc(Oc4ccncc4C#N)cc3)c3c(N)ncc(Cl)c32)C1` [BCD-BTK-232, (R)-4-(4-(1-(1-acryloylpiperidin-3-yl)-4-amino-7-chloro-1H-pyrazolo[4,3-c]pyridin-3-yl)phenoxy)nicotinonitrile], in series [6], the Papp A→B at 2 h, 10 μM came to 6.27 ×10⁻⁶ cm/s; the Papp B→A at 2 h, 10 μM worked out at 3.58 ×10⁻⁶ cm/s; the efflux ratio at 2 h, 10 μM came to 0.57. Besides, the pIC50 in series [1] was 4.82. Besides, the “Amount of substance in the sample, %” value in series [2] is reported as 88.6%. The pIC50 in series [3] is 4.97. Also, the “Amount of substance in the sample in %” value in series [7] came to 95.9%. Further, the “CC50 (HepG2)/IC50 (Mino)” value in series [4] is on record as 2.04. The compound further showed a CC50 at 72 h in series [5] of 31.1 µM.

Regarding `CC#CC(=O)N1CC(Cn2nc(-c3ccc(Oc4ccncc4)cc3)c3cncc(Cl)c32)C1` [BCD-BTK-261, 1-(3-((7-chloro-3-(4-(pyridin-4-yloxy)phenyl)-1H-pyrazolo[4,3-c]pyridin-1-yl)methyl)azetidin-1-yl)but-2-yn-1-one], in series [6], the Papp A→B at 2 h, 10 μM was determined as 8.3 ×10⁻⁶ cm/s; the Papp B→A at 2 h, 10 μM was determined as 0.95 ×10⁻⁶ cm/s; the efflux ratio at 2 h, 10 μM amounted to 0.11. Besides, in series [1], the pIC50 was 5.37. For the same compound, the “Amount of substance in the sample, %” value in series [2] is reported as 100.0%. For the same compound, in series [3], the pIC50 was 5.30. Besides, the “Amount of substance in the sample in %” value in series [7] is 100%. Also, in series [4], the “CC50 (HepG2)/IC50 (Mino)” value stood at 1.95. The compound further registered a CC50 at 72 h in series [5] of 8.33 µM.

On to `C=CC(=O)N1CCC[C@H]1Cn1nc(-c2ccc(Oc3ccncc3)cc2)c2cncc(Cl)c21` [BCD-BTK-263, (S)-1-(2-((7-chloro-3-(4-(pyridin-4-yloxy)phenyl)-1H-pyrazolo[4,3-c]pyridin-1-yl)methyl)pyrrolidin-1-yl)prop-2-en-1-one], for which the pIC50 in series [1] was 4.69; in series [3], 4.45. Besides, the “Amount of substance in the sample, %” value in series [2] was determined as 86.7%. Moreover, the “Amount of substance in the sample in %” value in series [7] is listed as 100%. Moreover, the “CC50 (HepG2)/IC50 (Mino)” value in series [4] is more than 2.42. This compound also displayed a CC50 at 72 h in series [5] of more than 50 µM.

As to `CC#CC(=O)N1CC[C@@H](n2nc(-c3ccc(Oc4ccncc4)cc3)c3cncc(Cl)c32)C1` [BCD-BTK-265, (R)-1-(3-(7-chloro-3-(4-(pyridin-4-yloxy)phenyl)-1H-pyrazolo[4,3-c]pyridin-1-yl)pyrrolidin-1-yl)but-2-yn-1-one], the pIC50 in series [1] was 5.10; in series [3], 4.78. In addition, the “Amount of substance in the sample, %” value in series [2] is listed as 81.7%. Further, the “Amount of substance in the sample in %” value in series [7] was 94.8%. For the same compound, the “CC50 (HepG2)/IC50 (Mino)” value in series [4] was 2.09. Besides, the CC50 at 72 h in series [5] amounted to 16.5 µM.

In the case of `CC#CC(=O)N1CC(Cn2nc(-c3ccc(C(=O)Nc4ccccn4)cc3)c3cncc(Cl)c32)C1` [BCD-BTK-267, 4-(1-((1-(but-2-ynoyl)azetidin-3-yl)methyl)-7-chloro-1H-pyrazolo[4,3-c]pyridin-3-yl)-N-(pyridin-2-yl)benzamide], the “Amount of substance in the sample, %” value in series [2] was found to be 100.0%. The “Amount of substance in the sample in %” value in series [7] is listed as 100%.

For the compound `CC#CC(=O)N1CCC[C@@H]1Cn1nc(-c2ccc(C(=O)Nc3ccccn3)cc2)c2cncc(Cl)c21` [BCD-BTK-269, (R)-4-(1-((1-(but-2-ynoyl)pyrrolidin-2-yl)methyl)-7-chloro-1H-pyrazolo[4,3-c]pyridin-3-yl)-N-(pyridin-2-yl)benzamide], the “Amount of substance in the sample, %” value in series [2] is 95.4%. Further, in series [7], the “Amount of substance in the sample in %” value is on record as 100%.

Consider `C=CC(=O)N1CCC[C@@H](n2nc(-c3ccc(Oc4cncc(C(N)=O)c4)cc3)c3cncc(F)c32)C1` [BCD-BTK-274, (R)-5-(4-(1-(1-acryloylpiperidin-3-yl)-7-fluoro-1H-pyrazolo[4,3-c]pyridin-3-yl)phenoxy)nicotinamide], for which the pIC50 was 4.40 in series [1] and less than 4.00 in series [3]. Moreover, in series [2], the “Amount of substance in the sample, %” value was found to be 91.3%. Moreover, the “Amount of substance in the sample in %” value in series [7] was found to be 100%. In addition, the “CC50 (HepG2)/IC50 (Mino)” value in series [4] is reported as 0.95. This compound returned a CC50 at 72 h in series [5] of 38 µM.

Turning to `CC#CC(=O)N1CCC[C@@H](Cn2nc(-c3ccc(C(=O)Nc4ccccn4)cc3)c3cncc(Cl)c32)C1` [BCD-BTK-278, (R)-4-(1-((1-(but-2-ynoyl)piperidin-3-yl)methyl)-7-chloro-1H-pyrazolo[4,3-c]pyridin-3-yl)-N-(pyridin-2-yl)benzamide], in series [2], the “Amount of substance in the sample, %” value is given as 96.2%. Moreover, the “Amount of substance in the sample in %” value in series [7] stood at 100%.

Take `CC#CC(=O)N1CCC[C@H](Cn2nc(-c3ccc(C(=O)Nc4ccccn4)cc3)c3cncc(Cl)c32)C1` [BCD-BTK-283, (S)-4-(1-((1-(but-2-ynoyl)piperidin-3-yl)methyl)-7-chloro-1H-pyrazolo[4,3-c]pyridin-3-yl)-N-(pyridin-2-yl)benzamide]: in series [2], the “Amount of substance in the sample, %” value is on record as 97.4%. In series [7], the “Amount of substance in the sample in %” value worked out at 100%.

Take `CC#CC(=O)N1CCC[C@@H](n2nc(-c3ccc(C(=O)Nc4ccccn4)cc3)c3cncc(Cl)c32)C1` [BCD-BTK-289, (R)-4-(1-(1-(but-2-ynoyl)piperidin-3-yl)-7-chloro-1H-pyrazolo[4,3-c]pyridin-3-yl)-N-(pyridin-2-yl)benzamide]: the pIC50 was 4.99 in series [1] and 5.08 in series [3]. Further, in series [2], the “Amount of substance in the sample, %” value was determined as 100.0%. Besides, in series [7], the “Amount of substance in the sample in %” value is 100%. For the same compound, the “CC50 (HepG2)/IC50 (Mino)” value in series [4] is 1.85. For the same compound, the CC50 at 72 h in series [5] turned out to be 18.8 µM.
